Reference: paper PMC8151276, “An Integrated Approach toward NanoBRET Tracers for Analysis of GPCR Ligand Engagement” (Molecules, 2021)

How the values were obtained:
Assay type in all cases: binding
CCR2 = target: T1, CCR2 (Homo sapiens, UniProt P41597); test: NanoBRET screen HiBiT-CCR2 in HEK293
T1 construct: purchased Promega (in-house HiBiT-GPCR construct library, NanoBRET)
Method: (§1) Each tracer candidate was screened across the entire library of HiBiT-GPCR constructs using NanoBRET as the detection modality. As depicted in Figure 4A, the specificity of interactions was evaluated through decrease in BRET due to competitive displacement of a bound tracer by excess parental compound. Each tracer was analyzed for binding to each HiBiT-GPCR fusion in the absence and in the presence of competing parental compound. Briefly, HEK293 cells were transfected with HiBiT-GPCR constructs diluted into promoterless DNA to reduce expression and maximize translocation to the cell surface. Each tracer candidate was then screened at concentrations of 1 μM and 0.1 μM across cells expressing these fusions. Cells were treated for 1.5 h with tracer either alone or in the presence of 20 μM competing parental compound (i.e., control). BRET was measured upon addition of purified LgBiT and subsequent complementation with HiBiT genetically fused to a GPCR. The specificity of interactions was assessed through a decrease in BRET signal due to competitive displacement of the bound tracer. To further gauge the robustness of these interactions, the fold response over the control (i.e., BRETtracer/BRETcontrol) was calculated. We chose a 1.5-fold response, which translates to ≥7-fold signal over noise as the minimal threshold required to score an interaction as positive. […]. Below we highlight the screening results obtained for our exemplary fluorescent tracers based on Clozapine, Amitriptyline and AZD1283.
(§2) HiBiT-GPCR DNA constructs were diluted in 10 mM Tris pH 8 to a final concentration of 0.01 μg/μL, arrayed in 96-well plates and stored at −20 °C. For transfection, HEK293 cells were suspended in Opti-MEM (without phenol red) supplemented with 2% fetal bovine serum (Seradigm) and 100 units/mL penicillin–streptomycin (Gibco) at a final concentration of 220,000 cells/mL and dispensed into white 96-well plates at 90 μL/well. Subsequent transfections and screens were carried using an Agilent Bravo Automated Liquid Handling Platform. First, the 96-well HiBiT DNA arrays were diluted 25-fold in Opti-MEM (without serum or phenol red) to a final concentration of 0.0004 μg/μL and 20 μL of the diluted DNAs were transferred into new 96-well plates. Next, promoterless carrier DNA (1 μg/μL) was diluted 25-fold (0.04 μg/μL) and then dispensed into the diluted arrays at 20 μL/well. Following brief mixing, Viafect transfection reagent (Promega) diluted 16-fold into Opti-MEM was dispensed into the plates at 40 μL/well. After mixing by pipetting, plates were incubated for 10 min on the pipetting station deck. The DNA-transfection reagent complexes were then added to plates containing cells. To facilitate the screen, 10 μL of DNA-transfection reagent complexes were added in duplicates to the top 4 and bottom 4 rows, resulting in two identical 48-well arrays per plate. Plates with transfected cells were incubated for 18–20 h at 37 °C/5% CO2. A screen of each tracer across the entire library using two different concentrations requires duplicate plates of transfected cells. Depending on the number of tracers being screened, transfections can be scaled up using the same ratios. The next day, for each tracer, four 20× screening solutions in tracer dilution buffer (Promega) were prepared: two duplicates at final concentration of 20 μM and two duplicates at a final concentration of 2 μM. A competing unmodified compound was added to one of each duplicate at a final concentration of 400 μM. The four resulting solutions were diluted 4-fold in Opti-MEM without serum or phenol red to generate 5× solutions (5 µM and 0.5 µM tracer +/− 100 μM competing compound). To screen the library, a BioTek MultiFlo FX liquid dispenser was used to dispense 22.5 µL of tracer solution to the top 4 rows and 22.5 µL tracer + competing compound solution to the 4 bottom rows. Plates were briefly mixed on an orbital shaker and incubated for 1.5 h at room temperature. […]

CCKBR = target: T2, CCKBR (Homo sapiens, UniProt P32239); test: NanoBRET screen HiBiT-CCKBR in HEK293
T2 construct: purchased Promega (in-house HiBiT-GPCR construct library, NanoBRET)
T2 sequence (P32239 1-447): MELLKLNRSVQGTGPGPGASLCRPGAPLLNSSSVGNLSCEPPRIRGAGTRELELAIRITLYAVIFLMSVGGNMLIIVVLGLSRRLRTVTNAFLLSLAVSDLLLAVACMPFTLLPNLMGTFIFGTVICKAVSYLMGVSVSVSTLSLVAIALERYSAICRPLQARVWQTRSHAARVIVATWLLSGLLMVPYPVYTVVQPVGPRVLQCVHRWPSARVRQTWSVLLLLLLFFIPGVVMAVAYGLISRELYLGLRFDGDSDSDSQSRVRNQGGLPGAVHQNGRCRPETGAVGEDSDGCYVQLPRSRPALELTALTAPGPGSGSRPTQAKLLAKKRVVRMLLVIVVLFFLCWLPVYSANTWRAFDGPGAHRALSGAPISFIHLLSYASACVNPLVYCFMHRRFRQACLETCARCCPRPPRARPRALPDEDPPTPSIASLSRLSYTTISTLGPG
Method: as §1, §2

P2RY1 = target: T3, P2RY1 (Homo sapiens, UniProt P47900); test: NanoBRET screen HiBiT-P2RY1 in HEK293
T3 construct: purchased Promega (in-house HiBiT-GPCR construct library, NanoBRET)
T3 sequence (P47900 whole entry): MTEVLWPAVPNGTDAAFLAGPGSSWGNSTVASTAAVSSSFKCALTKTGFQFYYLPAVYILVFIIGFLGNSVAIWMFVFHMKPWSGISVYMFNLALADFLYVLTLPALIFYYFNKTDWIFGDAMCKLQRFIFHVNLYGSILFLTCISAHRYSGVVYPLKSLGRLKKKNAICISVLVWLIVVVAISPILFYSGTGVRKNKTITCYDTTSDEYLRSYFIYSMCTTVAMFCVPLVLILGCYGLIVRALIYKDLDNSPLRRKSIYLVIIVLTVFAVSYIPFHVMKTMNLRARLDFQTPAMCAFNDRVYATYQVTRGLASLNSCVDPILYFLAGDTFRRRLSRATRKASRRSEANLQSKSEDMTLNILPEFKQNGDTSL
Method: as §1, §2

PTGDR2 = target: T4, PTGDR2 (Homo sapiens, UniProt Q9Y5Y4); test: NanoBRET screen HiBiT-PTGDR2 in HEK293; conditions: PTGDR2
T4 construct: purchased Promega (in-house HiBiT-GPCR construct library, NanoBRET)
T4 sequence (Q9Y5Y4 1-395): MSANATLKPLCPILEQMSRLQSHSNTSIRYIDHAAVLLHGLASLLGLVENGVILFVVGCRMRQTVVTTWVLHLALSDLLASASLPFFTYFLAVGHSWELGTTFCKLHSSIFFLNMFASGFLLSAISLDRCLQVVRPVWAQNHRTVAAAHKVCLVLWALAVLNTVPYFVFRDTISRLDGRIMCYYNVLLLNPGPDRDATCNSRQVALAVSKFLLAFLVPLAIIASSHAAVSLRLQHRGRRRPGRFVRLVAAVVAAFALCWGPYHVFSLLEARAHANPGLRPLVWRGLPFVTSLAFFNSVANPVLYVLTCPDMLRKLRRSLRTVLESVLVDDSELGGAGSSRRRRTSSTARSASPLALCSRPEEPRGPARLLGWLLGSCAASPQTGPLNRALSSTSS
Method: as §1, §2

CYSLTR2 = target: T5, CYSLTR2 (Homo sapiens, UniProt Q9NS75); test: NanoBRET screen HiBiT-CYSLTR2 in HEK293; conditions: CYSLTR2
T5 construct: purchased Promega (in-house HiBiT-GPCR construct library, NanoBRET)
T5 sequence (Q9NS75 1-346): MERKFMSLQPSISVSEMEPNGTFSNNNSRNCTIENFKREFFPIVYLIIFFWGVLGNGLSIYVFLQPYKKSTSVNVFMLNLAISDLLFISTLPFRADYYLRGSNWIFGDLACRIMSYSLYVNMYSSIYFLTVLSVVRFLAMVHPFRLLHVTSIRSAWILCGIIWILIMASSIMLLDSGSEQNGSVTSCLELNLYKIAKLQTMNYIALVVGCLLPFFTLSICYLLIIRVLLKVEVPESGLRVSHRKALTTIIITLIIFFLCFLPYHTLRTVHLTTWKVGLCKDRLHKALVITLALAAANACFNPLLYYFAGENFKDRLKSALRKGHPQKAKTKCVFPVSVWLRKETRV
Method: as §1, §2

T1 sequence (P41597 whole entry): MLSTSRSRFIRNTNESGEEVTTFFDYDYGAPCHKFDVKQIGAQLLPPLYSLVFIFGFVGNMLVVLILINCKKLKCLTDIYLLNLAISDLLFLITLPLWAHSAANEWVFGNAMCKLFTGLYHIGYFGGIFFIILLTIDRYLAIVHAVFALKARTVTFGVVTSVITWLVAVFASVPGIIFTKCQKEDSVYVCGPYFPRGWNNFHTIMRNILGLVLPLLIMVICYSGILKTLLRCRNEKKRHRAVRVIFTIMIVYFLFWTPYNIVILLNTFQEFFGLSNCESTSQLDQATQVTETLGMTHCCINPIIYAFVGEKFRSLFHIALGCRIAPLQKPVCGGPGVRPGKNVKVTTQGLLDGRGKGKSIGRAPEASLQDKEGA

COc1ccccc1N1CCN(CCCCN2C(=O)c3ccc(CNC(=O)CCOCCNC(=O)c4ccc(CNC(=O)CCc5ccc6n5[B-](F)(F)[N+]5=C(c7ccc[nH]7)C=CC5=C6)cc4)cc3C2=O)CC1 [NAN-190-3-NB590]
NanoBRET Fold Response (CCR2; CCR2, tracer 0.1μM): 0.82 | NanoBRET Fold Response (CCR2; CCR2, tracer 1μM): 0.94 | NanoBRET Fold Response (CCKBR; CCKBR, tracer 0.1μM): 0.98 | NanoBRET Fold Response (CCKBR; CCKBR, tracer 1μM): 0.94 | NanoBRET Fold Response (P2RY1; P2RY1, tracer 0.1μM): 0.97 | NanoBRET Fold Response (P2RY1; P2RY1, tracer 1μM): 1.00 | NanoBRET Fold Response (PTGDR2; tracer 0.1μM): 0.87 | NanoBRET Fold Response (PTGDR2; tracer 1μM): 0.85 | NanoBRET Fold Response (CYSLTR2; tracer 0.1μM): 1.11 | NanoBRET Fold Response (CYSLTR2; tracer 1μM): 1.31

Cc1nc2n(c(=O)c1CCN1CCC(c3noc4cc(F)ccc34)CC1)CCCC2OC(=O)NCCOCCOCCOCCOCCNC(=O)CCc1ccc2n1[B-](F)(F)[N+]1=C(c3ccc[nH]3)C=CC1=C2 (centres unmarked) [Risperidone-2-NB590]
NanoBRET Fold Response (CCR2; CCR2, tracer 0.1μM): 1.01 | NanoBRET Fold Response (CCR2; CCR2, tracer 1μM): 1.16 | NanoBRET Fold Response (CCKBR; CCKBR, tracer 0.1μM): 1.01 | NanoBRET Fold Response (CCKBR; CCKBR, tracer 1μM): 0.81 | NanoBRET Fold Response (P2RY1; P2RY1, tracer 0.1μM): 0.98 | NanoBRET Fold Response (P2RY1; P2RY1, tracer 1μM): 0.97 | NanoBRET Fold Response (PTGDR2; tracer 0.1μM): 0.99 | NanoBRET Fold Response (PTGDR2; tracer 1μM): 0.96 | NanoBRET Fold Response (CYSLTR2; tracer 0.1μM): 0.97 | NanoBRET Fold Response (CYSLTR2; tracer 1μM): 1.15

COc1ccccc1N1CCN(CCCCN2C(=O)c3ccc(CNC(=O)CCOCCOCCOCCOCCNC(=O)CCc4ccc5n4[B-](F)(F)[N+]4=C(c6ccc[nH]6)C=CC4=C5)cc3C2=O)CC1 [NAN-190-2-NB590]
NanoBRET Fold Response (CCR2; CCR2, tracer 0.1μM): 1.04 | NanoBRET Fold Response (CCR2; CCR2, tracer 1μM): 1.00 | NanoBRET Fold Response (CCKBR; CCKBR, tracer 0.1μM): 1.00 | NanoBRET Fold Response (CCKBR; CCKBR, tracer 1μM): 0.97 | NanoBRET Fold Response (P2RY1; P2RY1, tracer 0.1μM): 0.97 | NanoBRET Fold Response (PTGDR2; tracer 1μM): 1.02

CN(C)CCC=C1c2ccccc2CCc2ccc(C(=O)NCCNC(=O)CCOCCOCCOCCOCCNC(=O)CCc3ccc4n3[B-](F)(F)[N+]3=C(c5ccc[nH]5)C=CC3=C4)cc21 [Amitriptyline-a-2-NB590]
NanoBRET Fold Response (CCR2; tracer at 0.1μM): 1.19 | NanoBRET Fold Response (CCR2; tracer at 1μM): 1.05 | NanoBRET Fold Response (CCKBR; tracer at 0.1μM): 1.02 | NanoBRET Fold Response (CCKBR; tracer at 1μM): 0.98 | NanoBRET Fold Response (P2RY1; tracer at 0.1μM): 0.97 | NanoBRET Fold Response (P2RY1; tracer at 1μM): 1.01

CN(CCC=C1c2ccccc2CCc2ccccc21)C(=O)CCOCCOCCOCCOCCNC(=O)CCc1ccc2n1[B-](F)(F)[N+]1=C(c3ccc[nH]3)C=CC1=C2 [Amitriptyline-e-2-NB590]
NanoBRET Fold Response (CCR2; tracer at 1μM): 0.90 | NanoBRET Fold Response (CCKBR; tracer at 1μM): 1.02 | NanoBRET Fold Response (P2RY1; tracer at 1μM): 0.96
